Experimental data taken from paper PMC5906549, “Cathelicidin-Derived Antimicrobial Peptides Inhibit Zika Virus Through Direct Inactivation and Interferon Pathway” (Frontiers in Immunology, 2018).
Peptide text beside a SMILES is read from it.

Legend:
[1] = system: IFN-α2; test: IFN-α2 expression in human fetal astrocytes (real-time RT-PCR); assay type: cell-based; conditions: for IFN-α2 expression in ZIKV-infected fetal astrocytes: ZIKV MOI 0.5, AMPs 0.4 to 10 µM, 48 h; for IFN-α2 expression in ZIKV-infected fetal astrocytes / IFN-α2 expression in uninfected fetal astrocytes: normalized to 18-s rRNA, N = 3; for IFN-α2 expression in uninfected fetal astrocytes: AMP treatment 48 h
Method: (§1) Total mRNA was isolated with TRIzol Reagent (Thermo Fisher Scientific) and RNeasy Mini Kit (QIAGEN Inc., Valencia, CA, USA) following the manufacturer’s recommendations. Two real-time RT-PCR methods were used for the current studies. First, SYBR Green-based RT-PCR assay was used to determine intracellular ZIKV RNA in Vero cells. For this assay, reverse transcription was performed using Verso cDNA synthesis Kit (Thermo Fisher Scientific) and 1 µg of total RNA in a 15-µL final volume. The RT-PCR analyses were performed using 7.5-µL SYBR Green PCR Master Mix (Thermo Fisher Scientific) with 0.5-µL cDNA, 1.5-µL H2O, 5.5-µL oligonucleotide primer pairs at 10 µM. […] GG-3. PCR program: 1, 50°C for 2 min; 2, 95°C for 2 min; 3, 95°C for 15 s; 4, specific annealing temperature for 15 s; 5, 72°C for 1 min. Steps 2–4 were repeated 40 times. All samples were amplified in triplicate for analysis. Relative ZIKV RNA levels were determined and standardized with a GAPDH internal control using comparative ΔΔCT method ([35]). Second, TaqMan-based RT-PCR assay was used to determine intracellular ZIKV RNA and other gene expressions in Figures 3–6 and extracellular ZIKV RNA in Figure 3. The TaqMan assay was performed in a StepOne^TM Real-Time PCR system (Thermo Fisher Scientific). Primers used for TaqMan real-time RT-PCR were all from the Thermo Fisher Scientific, which included ZIKV (forward sequence: 5-[…]-3, reverse sequence: 5- […]-3, and probe sequence: 5′-[…]-3), IFN-α2 (Hs00265051_s1), IFN-β1 (Hs01077958_s1), eukaryotic 18-s rRNA (Hs99999901_s1), β-actin (Hs99999903_m1), and GAPDH (Catalog number: 4310884E). Relative ZIKV mRNA levels were determined and standardized with a GAPDH or 18-s rRNA endogenous control using comparative ΔΔCT method ([35]). […] For ZIKV in supernatants, RNA was extracted from the supernatants through TRIzol™ LS Reagent (Thermo Fisher Scientific, 10296028) following the manufacturer’s manual. […] Quantitative genomic RNA from ZIKV (NR-1838DQ, ATCC) was used as a standard to calculate viral copies.

[2] = system: ZIKV strain MR766; test: ZIKV RNA in infected Vero cells, peptide pre-treatment (real-time RT-PCR); assay type: cell-based, Zika virus; conditions: for ZIKV RNA compared with untreated controls: peptide 2 µM, 2 h before ZIKV MOI 0.5, re-treated at 24 h, 48-h post-infection, RT-PCR normalized to GAPDH, N = 3
Method: Human fetal astrocytes were derived from a single-cell isolation process of fetal brain tissues as previously described ([25], [26]). Briefly, dissociated brain tissue was incubated with 0.25% trypsin for 30 min, followed by neutralization with 10% fetal bovine serum (FBS), and further dissociated by trituration. The single-cell suspension was cultured as adherent cells in DMEM/F12 (Thermo Fisher Scientific, Waltham, MA, USA), supplemented with 10% FBS, penicillin (50 units/mL), and streptomycin (50 µg/mL) (Thermo Fisher Scientific). […] Vero cells (ATCC, CCL-81), an African green monkey kidney cell line, were maintained in Dulbecco’s Modified Eagle Medium (DMEM) with 5% FBS. Experiments with ZIKV were performed exclusively inside a BioSafety Level 2 (laboratory). All procedures utilized in this study were approved by the Institutional Biosafety Committee (IBC 16-05-013BL2) and followed biosafety level II practices as shown in National Institutes of health (NIH) Guideline Appendix G-II-B. ZIKV strain MR766 (Uganda, 1947) was obtained from ZeptoMetrix Corp., Buffalo, NY, USA, and propagated in Vero cells. ZIKV infection of the Vero cells and fetal astrocytes was previously characterized ([27]) and all infections in the current studies were at the MOI of 0.5.
as §1

[3] = system: ZIKV strain MR766; test: Viral attachment assay at 4°C in human fetal astrocytes; assay type: cell-based, Zika virus; conditions: astrocytes pre-incubated at 4°C half an hour, peptide along with ZIKV MOI 0.5 for 2 h at 4°C; normalized to 18-s rRNA; N = 3
Method: Viral attachment assay was adapted from a previous publication ([36]) with modifications. Briefly, primary human fetal astrocytes were pre-incubated at 4°C for half an hour and then treated with AMPs along with ZIKV infection at the MOI of 0.5. After infection at 4°C for 2 h, cultures were washed with fresh medium for three times and RNA was isolated from whole cells. ZIKV RNA was determined through real-time RT-PCR. Data were normalized to 18-s rRNA and presented as fold change compared with the ZIKV group. One experimental group was subjected to trypsin digestion to remove any attached virions. This group served as a positive control for the viral attachment experiment.
(A) Primary human fetal astrocytes were pre-incubated at 4°C for half an hour and then treated with antimicrobial peptides along with ZIKV infection at the MOI of 0.5 for 2 h. Cultures were then washed with fresh medium for three times. […] Data were normalized to 18-s rRNA and presented as fold change compared with the ZIKV group. The trypsin digestion group readily removes any attached virions and thus serves as positive control. […] After infection for 2 h, cultures were washed with fresh medium for three times and RNA was isolated from whole cells. ZIKV RNA was determined through real-time RT-PCR.

[4] = uninfected human fetal astrocytes

SMILES | IFN-α2 expression in ZIKV-infected fetal astrocytes [1] | IFN-α2 expression in uninfected fetal astrocytes [1, 4] | Dose dependence of ZIKV RNA decrease ([2]; peptide 0.4, 2 and 10 µM, ZIKV MOI 0.5, 48-h post-infection) | ZIKV RNA levels in astrocytes at 4°C (viral attachment) [3] | Increase of IFN-α2 expression in uninfected fetal astrocytes ([1]; uninfected human fetal astrocytes, difference not statistically significant) [folds] | ZIKV RNA compared with untreated controls [2]
CC[C@H](C)[C@H](NC(=O)[C@H](CCCNC(=N)N)NC(=O)[C@H](CCC(N)=O)NC(=O)[C@@H](NC(=O)[C@@H](NC(=O)[C@@H](N)CCCNC(=N)N)[C@@H](C)CC)C(C)C)C(=O)N[C@@H](CCCCN)C(=O)N[C@@H](CC(=O)O)C(=O)N[C@@H](Cc1ccccc1)C(=O)N[C@@H](CC(C)C)C(=O)O [RI-10, reference compound] (H-RIVQRIKDFL-OH; N-terminus and C-terminus assumed) | but not RI-10, significantly increased IFN-α2 expression levels | did not affect the expression levels of IFN-α2 | except RI-10 showed dose-dependent decrease of ZIKV RNA | did not alter the ZIKV RNA levels | – | –
CC[C@H](C)[C@H](NC(=O)[C@H](CCCCN)NC(=O)[C@H](CCCCN)NC(=O)[C@H](Cc1ccccc1)NC(=O)[C@H](CC(C)C)NC(=O)[C@H](CCCCN)NC(=O)[C@H](CCCCN)NC(=O)[C@H](Cc1ccccc1)NC(=O)[C@H](CCCCN)NC(=O)[C@H](CCCCN)NC(=O)[C@H](CCCNC(=N)N)NC(=O)[C@H](Cc1ccccc1)NC(=O)[C@H](CCCNC(=N)N)NC(=O)[C@H](CCCCN)NC(=O)[C@H](Cc1ccccc1)NC(=O)[C@H](CCCNC(=N)N)NC(=O)CN)C(=O)N[C@@H](CO)C(=O)O [BMAP-18] (H-GRFKRFRKKFKKLFKKIS-OH; N-terminus and C-terminus assumed) | significantly increased IFN-α2 expression levels in a dose-dependent manner | – | – | did not alter the ZIKV RNA levels | 7 | significantly decreased ZIKV RNA
CC[C@H](C)[C@H](NC(=O)[C@H](CCCNC(=N)N)NC(=O)[C@H](CCC(N)=O)NC(=O)[C@@H](NC(=O)[C@@H](NC(=O)[C@H](CCCNC(=N)N)NC(=O)[C@H](CCCCN)NC(=O)[C@H](Cc1ccccc1)NC(=O)CN)[C@@H](C)CC)C(C)C)C(=O)N[C@@H](CCCCN)C(=O)N[C@@H](CC(=O)O)C(=O)N[C@@H](Cc1ccccc1)C(=O)N[C@@H](CC(C)C)C(=O)N[C@@H](CCCNC(=N)N)C(=O)N[C@@H](CC(N)=O)C(=O)N[C@@H](CC(C)C)C(=O)N[C@H](C(N)=O)C(C)C [GF-17] (H-GFKRIVQRIKDFLRNLV-NH2; N-terminus and C-terminus assumed) | significantly increased IFN-α2 expression levels in a dose-dependent manner | significantly increased IFN-α2 expression | – | did not alter the ZIKV RNA levels | – | significantly decreased ZIKV RNA
